Assay results: US20230257480A1, “ENHANCING BLOOD-BRAIN BARRIER DRUG TRANSPORT BY TARGETING ENDOGENOUS REGULATORS” (THE BOARD OF TRUSTEES OF THE LELAND STANFORD JUNIOR …, priority 2019, published 2023)

Key:
brain endothelial cells = test: Flow cytometry of brain endothelial cell uptake of tracer after ALPL inhibitor treatment; type: in vivo, mice; conditions: Atto 647N-labeled plasma, vs vehicle
Excerpt: (§1) FIGS. 14A-14D are graphs illustrating flow cytometry quantification of brain endothelial cell uptake of plasma from young mice (3 m.o.) (FIG. 14A), plasma from aged mice (22 m.o.) (FIG. 14B), human holo-transferrin (hu-Tf) from aged mice (FIG. 14C), or transferrin receptor antibody (TfR Ab) from aged mice (FIG. 14D) treated with vehicle (grey) or anti-ALPL (green) via IP injections twice daily for three days, as assessed by % of BECs that are tracer^+ and relative MFI of tracer^+ BECs (for plasma, n=4; for hu-Tf, n=6 vehicle, n=5 anti-ALPL; for TfR Ab, n=9, two-sided t-test, mean+/−s.e.m.). Tracer refers to plasma, hu-Tf, or TfR Ab. FIG. 14E includes representative images of hu-Tf^+ neurons detected in the cortex of mice treated with ALPL inhibitor. Scale bar=40 microns. […] FIG. 14H includes graphs illustrating flow cytometry quantification of brain endothelial cell and brain parenchymal cell uptake of 3 kDa dextran tracer, which probes for disruptions in paracellular permeability, in young mice (3 m.o.) and aged mice (22 m.o.) (n=6 vehicle, n=5 anti-ALPL, two-sided t-test, mean+/−s.e.m.).
CNS cell isolation adopted previously described methods42,139,140. […] For analysis of plasma uptake, at least 1,000 cells of each population of interest were analyzed per sample. […]

[1] = system: cerebrovascular morphology; test: Cerebrovascular morphology by CD31 staining after ALPL inhibitor treatment; type: in vivo; conditions: aged (22 m.o.) mice, vs vehicle
Excerpt: as §1
Brain tissue processing, immunohistochemistry, and immunofluorescence experiments were performed as described previously12,13. […] National Institutes of Health ImageJ software was used to quantify the percentage of vasculature (CD31 or AQP4) covered by CD13, AQP4, or ALPL, as described previously63. […]

- vascular morphology [1]: did not perturb
SMILES: COc1ccc(OC)c(S(=O)(=O)Nc2cnc3ccccc3c2)c1 [ALPL inhibitor, 2,5-Dimethoxy-N-(quinolin-3-yl)benzenesulfonamide]
- plasma uptake in brain endothelial cells, aged mice (brain endothelial cells; aged (22 m.o.) mice): increased
- plasma uptake in brain endothelial cells, young mice (brain endothelial cells; young (3 m.o.) mice): increased
